Common to all, as to format: cell-based
In assay [1] the target is T1, GPR174 (Homo sapiens, UniProt Q9BXC1). The assay can be described thus: Cellular redistribution assay (CRA) for GPR174. The conditions noted are these: multiple values = separate experiments. The text has this: One method for identifying compounds capable of modulating a receptor is using a cellular redistribution assay (“CRA”). Exemplary CRA methods are found in U.S. Pat. No. 7,309,576 issued to O'Dowd et al. and in O'Dowd et al., J. Biomol. Screen. 12:175-85,2007. […] Incorporation of the NLS alters the cellular localization of the GPCR, such that the majority of the NLS-modified receptor is present in the cell interior. An NLS-modified GPCR, when interacting with a functionally active compound, is mostly localized on the cell surface. Thus, it becomes possible to identify receptor modulators without knowledge of the endogenous ligand or a surrogate ligand.
The inventors have identified a number of compounds that inhibit GPR174 using a CRA assay similar to that described in U.S. Pat. No. 7,309,576 and in O'Dowd et al., J. Biomol. Screen. 12:175-85, 2007. These compounds are described in detail below.
The inventors used a CRA similar to that described in U.S. Pat. No. 7,309,576 and O'Dowd et al., J. Biomol. Screen. 12:175-85, 2007 to identify compounds that are capable of interacting with GPR174 using a library of approximately 370,000 chemical entities. Briefly described, the CRA assay described in U.S. Pat. No. 7,309,576 involves artificially inserting a NLS into the dopamine D1 receptor (DRD1), which allows the receptor to traffic from the cell membrane to the cell interior, and that the binding of antagonists to the receptor retained the receptor at the cell surface, while removal of the ligand allowed the receptor to continue to internalize from the cell surface. Both antagonists and agonists that selectively bound the receptor retained the receptor on the plasma membrane. GPR174 constructs were generated for use in a CRA-based compound screening assay. From this screen, the inventors initially identified compounds of formula I-VI, as described herein and included in Table 1.
Target sequence in this assay (Q9BXC1 1-292 limits assumed): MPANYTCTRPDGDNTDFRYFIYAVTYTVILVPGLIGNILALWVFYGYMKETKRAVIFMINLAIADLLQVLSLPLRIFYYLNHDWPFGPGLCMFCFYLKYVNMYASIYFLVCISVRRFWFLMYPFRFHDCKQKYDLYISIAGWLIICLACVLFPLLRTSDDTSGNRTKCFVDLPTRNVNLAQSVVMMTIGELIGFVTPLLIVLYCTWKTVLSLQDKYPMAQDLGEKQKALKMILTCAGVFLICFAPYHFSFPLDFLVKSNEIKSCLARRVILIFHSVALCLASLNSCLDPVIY

The target in assay [2] is T1, GPR174. The assay can be described thus: CRE-Luc reporter Gs signaling assay with GPR174. Also noted: host or cells: HEK293 or CHO cell lines (ATCC). As to conditions: for Fold decrease in Gs signaling activity / EC50 / Human GPR174 CRE Activity: nature of the compound (IA, antagonist, NM): pCRE-Luc reporter; for EC50: multiple values = separate experiments; for Gs pathway in the presence of GPR174 (CRE-Luc reporter): increasing concentrations of compound.
Target sequence in this assay (Q9BXC1 whole entry): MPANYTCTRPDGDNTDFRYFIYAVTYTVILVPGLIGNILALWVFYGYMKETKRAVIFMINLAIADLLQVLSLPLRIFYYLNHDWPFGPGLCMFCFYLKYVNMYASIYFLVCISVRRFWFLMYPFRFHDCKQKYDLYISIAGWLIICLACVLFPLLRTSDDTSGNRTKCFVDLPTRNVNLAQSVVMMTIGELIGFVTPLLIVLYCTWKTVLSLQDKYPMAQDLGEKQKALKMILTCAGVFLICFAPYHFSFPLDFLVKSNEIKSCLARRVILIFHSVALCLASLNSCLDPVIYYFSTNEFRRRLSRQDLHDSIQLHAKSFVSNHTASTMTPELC

Another assay concerns the target T2, ADBR2 (Homo sapiens, UniProt P07550).
T2 construct: host or cells: HEK293 or CHO cell lines (ATCC)
The assay can be described thus: CRE-Luc reporter assay with control receptor ADBR2. Here is the method:
The DNA/lipofectamine 2000 mix (3000 μL) was incubated at room temperature for 30 minutes and then added into a 10 cm culture dish (Corning, NY) containing 70-90% confluent cultured cells, (HEK293 or CHO cell lines (ATCC, VA)), in 15 mL of media. […] The cells were further incubated at 37° C. for various times. The media were removed and the cells lysed.
Compounds were tested in the reporter system with increasing concentrations of GPR174-interacting compounds.
The DNA/lipofectamine 2000 mix (3000 μL) was incubated at room temperature for 30 minutes and then added into a 10 cm culture dish (Corning, NY) containing 70-90% confluent cultured cells, typically HEK293 or CHO cell lines (ATCC, VA), in 15 mL of media. […] Media (26 mL) were added to the detached cells and 120 μL of transfected cells were transferred to each well on a 96-well plate. Increasing concentration of each compound in DMSO (1.2 μl) was added to the cells after plating into the 96-well plate. The cells were further incubated at 37° C. for various times. The media were removed, and the cells lysed.
ADBR2 is a GPCR, like GPR174, that activates the Gs signaling pathway.
(In general: Reporter assays use an easily measured gene product as a stand-in for the process of interest.)

The structures appear in SMILES notation. Several values for one entry are separate records, joined by “and”; a condition that tells them apart may be missing. Identical values can stand only once. Entries after “also recorded” stand apart in the source; their conditions may differ.

Data on 23 molecules can be found in patent US20200345725A1, “Methods and Compositions for Treating Cancer” (Omeros Corporation, priority 2019, published 2020).

T2 sequence (P07550 whole entry): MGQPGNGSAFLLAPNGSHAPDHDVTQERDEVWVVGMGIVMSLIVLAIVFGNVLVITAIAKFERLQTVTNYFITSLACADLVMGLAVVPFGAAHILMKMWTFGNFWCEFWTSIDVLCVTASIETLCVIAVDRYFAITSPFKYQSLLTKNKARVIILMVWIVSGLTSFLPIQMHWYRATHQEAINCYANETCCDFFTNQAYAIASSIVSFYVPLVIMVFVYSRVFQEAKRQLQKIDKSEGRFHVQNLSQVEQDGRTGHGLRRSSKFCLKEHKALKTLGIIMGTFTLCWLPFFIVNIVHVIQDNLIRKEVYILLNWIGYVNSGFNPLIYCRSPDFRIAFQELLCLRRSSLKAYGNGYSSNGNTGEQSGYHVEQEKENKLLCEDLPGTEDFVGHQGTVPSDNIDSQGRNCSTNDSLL

Consider `CCCC(=O)N1CCN(c2cc(N3CCCCC3)c(F)cc2[N+](=O)[O-])CC1` [compound 5], for which the results for the EC50 at GPR174 [1] and on GPR174 [2] were more than 1200 nM and 900 nM, respectively. In addition, the “Fold decrease in Gs signaling activity” value on GPR174 [2] is 2.4 fold.
As for `CCOC(=O)N1CCN(c2cc(N3CCCCC3)c(F)cc2[N+](=O)[O-])CC1` [compound 7], the EC50 – broadly, the concentration at which the effect is half-maximal – at GPR174 [1] is more than 700 nM. Also, the “Gs pathway in the presence of ADBR2 (CRE-Luc reporter)” value (“Gs pathway in the presence of ADBR2” below) on ADBR2 is reported as “did not inhibit”. At GPR174 [2], the “Gs pathway in the presence of GPR174 (CRE-Luc reporter)” value (“Gs pathway in the presence of GPR174” for short) is given as “inhibited”; the “Fold decrease in Gs signaling activity” value was determined as 2.4 fold; the EC50 is 300 nM and 500 nM.
Take `CCC(=O)N1CCN(c2cc(N3CCCCC3)c(F)cc2[N+](=O)[O-])CC1` [compound 9]: the EC50 on GPR174 [1] is more than 2000 nM; on GPR174 [2] it was 700 nM and 500 nM. Further, the “Fold decrease in Gs signaling activity” value at GPR174 [2] was 2.1 fold.
`CC(=O)N1CCN(c2cc(N3CCC(C)CC3)c(F)cc2[N+](=O)[O-])CC1` [compound 13] returned an EC50 at GPR174 [1] of more than 2000 nM. For the same molecule, at GPR174 [2], the “Fold decrease in Gs signaling activity” value was determined as 2.2 fold; the EC50 was 800 nM and 1200 nM.
As to `Cc1ccc(-c2nnc(Nc3ccccc3)c3ccccc23)cc1S(N)(=O)=O` [compound 19], the “Gs pathway in the presence of ADBR2” value at ADBR2 was “did not modulate”. For the same molecule, at GPR174 [2], the “Gs pathway in the presence of GPR174” value is on record as “did not modulate” and the “Human GPR174 CRE Activity: nature of the compound (IA, antagonist, NM)” value (shortened to “Human GPR174 CRE Activity: nature”) is on record as “Antagonist or allosteric modulator”.
For the molecule `Cc1cc(Cc2ccc(NC(=O)c3cccs3)c(C)c2)ccc1NC(=O)c1cccs1` [compound 21], the “Gs pathway in the presence of ADBR2” value on ADBR2 is listed as “did not modulate”. Moreover, on GPR174 [2], the “Gs pathway in the presence of GPR174” value is reported as “did not modulate” and the “Human GPR174 CRE Activity: nature” value was “GPR174 antagonist or allosteric modulator”.
On to `COc1ccc(C2C3=C(CCCC3=O)NC3=C2C(=O)c2ccccc23)cc1` (stereo not shown) [compound 22], for which, on ADBR2, the “Gs pathway in the presence of ADBR2” value is on record as “did not inhibit”. Besides, at GPR174 [2], the “Gs pathway in the presence of GPR174” value is listed as “inhibited”; the “Fold decrease in Gs signaling activity” value turned out to be 10.2 fold; the EC50 was 1000 nM and 1500 nM.
For `CCOc1ccc(C2C3=C(CCCC3=O)NC3=C2C(=O)c2ccccc23)cc1` (stereo not shown) [compound 23], at ADBR2, the “Gs pathway in the presence of ADBR2” value was “did not inhibit”. On GPR174 [2], the “Gs pathway in the presence of GPR174” value is reported as “inhibited”; the “Fold decrease in Gs signaling activity” value is listed as 14.1 fold; the EC50 is 400 nM and 900 nM and 1200 nM and 1000 nM.
In the case of `CCCCOc1ccc(C2C3=C(CCCC3=O)NC3=C2C(=O)c2ccccc23)cc1` (stereo not shown) [compound 31], the “Gs pathway in the presence of ADBR2” value on ADBR2 is given as “did not inhibit”. Further, at GPR174 [2], the “Gs pathway in the presence of GPR174” value was “inhibited”, the “Fold decrease in Gs signaling activity” value was 8.9 fold and the EC50 amounted to 1200 nM.
As for `O=C1CCCC2=C1C(c1ccc(OCCO)cc1)C1=C(N2)c2ccccc2C1=O` (stereo not shown) [compound 33], the “Gs pathway in the presence of ADBR2” value at ADBR2 was “did not inhibit”. On GPR174 [2], the “Gs pathway in the presence of GPR174” value is “inhibited”, the “Fold decrease in Gs signaling activity” value was determined as 9.2 fold and the EC50 stood at 4400 nM.
The like results for `O=C1CCCC2=C1C(c1ccc3c(c1)OCCO3)C1=C(N2)c2ccccc2C1=O` (stereo not shown) [compound 36] were, in that order, “did not inhibit”, “inhibited”, 8.3 fold and 2600 nM.
For the molecule `O=C1CCCC2=C1C(c1ccncc1)C1=C(N2)c2ccccc2C1=O` (stereo not shown) [compound 42], the “Gs pathway in the presence of ADBR2” value at ADBR2 is “did not inhibit”. Besides, at GPR174 [2], the “Gs pathway in the presence of GPR174” value is reported as “inhibited”, the “Fold decrease in Gs signaling activity” value came to 4.3 fold and the EC50 is 6600 nM.
As for `CC(C)Oc1ccc(C2C3=C(CCCC3=O)NC3=C2C(=O)c2ccccc23)cc1` (stereo not shown) [compound 49], at GPR174 [2], the “Fold decrease in Gs signaling activity” value stood at 14.3 fold and the EC50 was 600 nM.
As for `C=CCOc1ccc(C2C3=C(CCCC3=O)NC3=C2C(=O)c2ccccc23)cc1` (stereo not shown) [compound 50], on GPR174 [2], the “Fold decrease in Gs signaling activity” value was found to be 10.1 fold and a half-maximal response (EC50) required 1200 nM.
As to `CCOc1cccc(C2C3=C(CCCC3=O)NC3=C2C(=O)c2ccccc23)c1` (stereo not shown) [compound 51], on GPR174 [2], the “Fold decrease in Gs signaling activity” value is reported as 1.7 fold and the EC50 is 1600 nM.
With `CCCCCCOc1ccc(C2C3=C(CCCC3=O)NC3=C2C(=O)c2ccccc23)cc1` (stereo not shown) [compound 52], at GPR174 [2], the “Fold decrease in Gs signaling activity” value amounted to 3.1 fold and the midpoint of the response, the EC50, lay at 500 nM.
Regarding `O=[N+]([O-])c1cc(F)c(N2CCCCCC2)cc1N1CCN(S(=O)(=O)c2ccccc2)CC1` [compound 53], at GPR174 [2], the “Fold decrease in Gs signaling activity” value is 3.4 fold and the response was half-maximal at 1800 nM (EC50).
Regarding `CCc1ccc(C2C3=C(CCCC3=O)NC3=C2C(=O)c2ccccc23)cn1` (stereo not shown) [compound 54], at GPR174 [2], the “Fold decrease in Gs signaling activity” value is on record as 7 fold and the EC50 was determined as 2000 nM.
The corresponding values for `CCOc1ccc(C2C3=C(CCCC3=O)NC3=C2C(=O)c2ccccc23)cn1` (stereo not shown) [compound 55] are 7 fold and 600 nM.
Regarding `C=C(C)COc1ccc(NC(=O)Nc2ccccc2)cc1` [compound 56], at GPR174 [2], the “Fold decrease in Gs signaling activity” value was 3 fold; the “Human GPR174 CRE Activity: nature” value was “inverse agonist”; the midpoint of the response, the EC50, lay at 500 nM.
For the molecule `O=C(N/N=C/c1cc(Cl)ccc1O)c1ccncc1` [compound 57], the “Human GPR174 CRE Activity: nature” value on GPR174 [2] was “GPR174 antagonists or allosteric modulators; also recorded: Antagonist or allosteric modulator”.
With `Cc1cc(C(=O)N/N=C/c2cc(Br)ccc2O)c(C)o1` [compound 58], the “Human GPR174 CRE Activity: nature” value at GPR174 [2] was “GPR174 antagonists or allosteric modulators; also recorded: Antagonist or allosteric modulator”.
`S=C(NCc1ccco1)Nc1ccc(I)cc1` [compound 59]: the “Human GPR174 CRE Activity: nature” value at GPR174 [2] is on record as “NM (“NM” refers to “non-modulator.”)”.
